Data set [1] is described as follows: Exposed Polar Surface Area (EPSA). The class given is physicochemical. The conditions noted are these: SFC on Chirex 3014 column; sample 1 mM DMSO stock; read-out: EPSA. The procedure, abridged: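 Retention-based polarity: supercritical CO2 with 20 mM ammonium formate in MeOH (5–60%, 20%/min), Chirex 3014 column, 35 °C. Calibrated against 8 standards to give EPSA (Å^2); each sample measured twice.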

Data set [2] deals with T1, IL-23R (Homo sapiens, UniProt Q5VWK5).
T1 construct: host or cells: HEK293
T1 sequence (Q5VWK5 24-629): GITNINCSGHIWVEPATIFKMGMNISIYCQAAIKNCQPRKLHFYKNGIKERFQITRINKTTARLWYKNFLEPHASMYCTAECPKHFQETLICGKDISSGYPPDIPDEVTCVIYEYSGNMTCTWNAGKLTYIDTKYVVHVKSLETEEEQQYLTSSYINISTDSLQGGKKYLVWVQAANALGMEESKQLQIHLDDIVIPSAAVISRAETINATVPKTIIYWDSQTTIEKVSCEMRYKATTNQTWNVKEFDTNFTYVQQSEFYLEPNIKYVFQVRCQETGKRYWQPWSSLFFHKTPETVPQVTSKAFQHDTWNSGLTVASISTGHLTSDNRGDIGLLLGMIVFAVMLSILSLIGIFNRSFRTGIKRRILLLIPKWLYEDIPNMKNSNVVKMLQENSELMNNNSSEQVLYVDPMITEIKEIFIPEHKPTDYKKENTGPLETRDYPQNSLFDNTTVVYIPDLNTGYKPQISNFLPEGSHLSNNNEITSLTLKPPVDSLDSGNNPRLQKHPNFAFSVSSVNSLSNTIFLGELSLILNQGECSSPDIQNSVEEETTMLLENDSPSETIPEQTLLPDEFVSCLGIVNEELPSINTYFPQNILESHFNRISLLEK
The data set is described as follows: IL23R Reporter Assay. The class given is cell-based. The conditions noted are these: HEK293 cells containing IL-23R, IL-12RP1 and STAT-inducible firefly luciferase reporter; 10 ng/mL IL-23 (EC90); 5 h at 37° C.; read-out: IL23R Reporter Assay. A general note: A reporter such as luciferase makes a cellular process visible.

The values below come from patent US20260022143A1, “Cyclic Peptide Inhibitors of IL-23” (JANSSEN PHARMACEUTICA NV, priority 2022, published 2026).

Starred links: 1 amine or outer side, 2 acyl side, 3 side chain; linkers in the order of their positions; H or OH if unused. Positions of bridges follow the written chain, without caps; N, C: chain ends. Non-standard residues stand in square brackets, D forms with d. Residues, ends and D or L forms follow the SMILES beside them. Groups on a side chain read outwards from the residue. *: point of attachment. Trp(7-(3-AcNH-Ph)) = CC(=O)Nc1cccc(-c2cccc3c(C[C@H](N)C(=O)O)c[nH]c23)c1; Me3N+(CH2)2O(CH2)2O(CH2)2CO = C[N+](C)(C)CCOCCOCCC(=O)*; Trp(7-Me) = Cc1cccc2c(C[C@H](N)C(=O)O)c[nH]c12; dLys(Me3) = C[N+](C)(C)CCCC[C@@H](N)C(=O)O; X1 = CN(CC[C@H](N[*:1])C(=O)[*:2])[*:3]; γGlu = O=C(O)[C@H](CCC(=O)[*:2])N[*:1]; 2Nal = N[C@@H](Cc1ccc2ccccc2c1)C(=O)O; AEF = NCCOc1ccc(C[C@H](N)C(=O)O)cc1; 3Pal = N[C@@H](Cc1cccnc1)C(=O)O; Lys(Me) = CNCCCC[C@H](N)C(=O)O; X5 = C[N+](C)(C)CCOCCOCC(=O)*; NMeK = CN[C@@H](CCCCN)C(=O)O; Pen = CC(C)(S)[C@H](N)C(=O)O; Lauroyl = CCCCCCCCCCCC(=O)*; Thp = NC1(C(=O)O)CCOCC1; X3 = C[N+](C)(C)CCCCC*; AEEA = NCCOCCOCC(=O)O; Sar = CNCC(=O)O; X58 = NCCCCC*

As for `CC(=O)N(C)CCCC[C@@H]1NC(=O)[C@H](Cc2c[nH]c3c(C)cccc23)NC(=O)[C@H]([C@@H](C)O)NC(=O)[C@H](CC(=O)N(C)C)NC(=O)[C@@H](NC(=O)CCOCCOCC[N+](C)(C)C)C(C)(C)SSC(C)(C)[C@@H](C(=O)N[C@@H](Cc2ccc(OCCCCCN)cc2)C(=O)N[C@@H](Cc2ccc3ccccc3c2)C(=O)NC2(C(=O)N[C@@H](CCCCN(C)C(C)=O)C(=O)N[C@@H](CC(N)=O)C(=O)N[C@@H](Cc3cccnc3)C(=O)N(C)CC(=O)N(C)C)CCOCC2)NC1=O` [compound 528, cPEG3aCO-Pen(3)-N(N(Me)2)-T-7MeW-K(NMeAc)-Pen(3)-APF-2Nal-THP-K(NMeAc)-N-3Pya-Sar-CON(Me)2] ({Me3N+(CH2)2O(CH2)2O(CH2)2CO}-[Pen]D(NMe2)T[Trp(7-Me)][Lys(Me)](Ac)[Pen]Y(X58)[2Nal][Thp][Lys(Me)](Ac)N[3Pal][Sar]-NMe2; disulfide 1-6), the EPSA in data set [1] stood at 163 A^2. Moreover, in data set [2], the IC50 amounted to 3.8 nM.

Consider `CC(=O)NCCCC[C@@H]1NC(=O)[C@H](Cc2c[nH]c3c(-c4cccc(NC(C)=O)c4)cccc23)NC(=O)[C@H]([C@@H](C)O)NC(=O)[C@H](CC(N)=O)NC(=O)[C@@H](NC(=O)[C@@H](CCCC[N+](C)(C)C)NC(C)=O)C(C)(C)SSC(C)(C)[C@@H](C(=O)N[C@@H](Cc2ccc(OCCCCC[N+](C)(C)C)cc2)C(=O)N[C@@H](Cc2ccc3ccccc3c2)C(=O)NC2(C(=O)N[C@@H](CCC(=O)O)C(=O)N[C@@H](CC(N)=O)C(=O)N[C@@H](Cc3cccnc3)C(=O)N(C)CC(N)=O)CCOCC2)NC1=O` [compound 448, MeCO-k(Me)3-Pen(3)-N-T-7(3NAcPh)W-K(Ac)-Pen(3)-TMAPF-2Nal-THP-E-N-3Pya-Sar-CONH2] (Ac-[dLys(Me3)][Pen]NT[Trp(7-(3-AcNH-Ph))]K(Ac)[Pen]Y(X3)[2Nal][Thp]EN[3Pal][Sar]-NH2; disulfide 2-7), for which the EPSA in data set [1] is 176 A^2. For the same compound, the IC50 in data set [2] was 2 nM.

For the compound `CC(=O)N[C@@H]1C(=O)N[C@@H](CC(=O)N(C)C)C(=O)N[C@@H]([C@@H](C)O)C(=O)N[C@@H](Cc2c[nH]c3c(C)cccc23)C(=O)N[C@@H](CCN(C)C(=O)COCCOCC[N+](C)(C)C)C(=O)N[C@H](C(=O)N[C@@H](Cc2ccc(OCCN)cc2)C(=O)N[C@@H](Cc2ccc3ccccc3c2)C(=O)NC2(C(=O)N[C@@H](CCC(=O)O)C(=O)N[C@@H](CC(N)=O)C(=O)N[C@@H](Cc3cccnc3)C(=O)N(C)CC(=O)N(C)C)CCOCC2)C(C)(C)SSC1(C)C` [compound 130, MeCO-Pen(3)-N(N(Me)2)-T-7MeW-Dab(NMecPEG2a)-Pen(3)-AEF-2Nal-THP-E-N-3Pya-Sar-CON(Me)2] (Ac-[Pen]D(NMe2)T[Trp(7-Me)][X1](X5)[Pen][AEF][2Nal][Thp]EN[3Pal][Sar]-NMe2; disulfide 1-6), the EPSA in data set [1] amounted to 164 A^2. For the same compound, in data set [2], the IC50 amounted to 3.4 nM.

With `CCCCCCCCCCCC(=O)N[C@@H](CCC(=O)NCCOCCOCC(=O)NCCOCCOCC(=O)NCCCC[C@H](NC(=O)C1(NC(=O)[C@H](Cc2ccc3ccccc3c2)NC(=O)[C@H](Cc2ccc(OCCCCC[N+](C)(C)C)cc2)NC(=O)[C@H]2NC(=O)[C@H](CCCCNC(C)=O)NC(=O)[C@H](Cc3c[nH]c4c(C)cccc34)NC(=O)[C@H]([C@@H](C)O)NC(=O)[C@H](CC(N)=O)NC(=O)[C@@H](NC(=O)CCOCCOCC[N+](C)(C)C)C(C)(C)SSC2(C)C)CCOCC1)C(=O)N[C@@H](CC(N)=O)C(=O)N[C@@H](Cc1cccnc1)C(=O)N(C)[C@@H](CCCCNC(=O)COCCOCCNC(=O)COCCOCCNC(=O)CC[C@H](NC(=O)CCCCCCCCCCC)C(=O)O)C(N)=O)C(=O)O` [compound 349, cPEG3aCO-Pen(3)-N-T-7MeW-K(Ac)-Pen(3)-TMAPF-2Nal-THP-K(PEG2PEG2gEC12)-N-3Pya-NMeK(PEG2PEG2gEC12)-CONH2] ({Me3N+(CH2)2O(CH2)2O(CH2)2CO}-[Pen]NT[Trp(7-Me)]K(Ac)[Pen]Y(X3)[2Nal][Thp]K([AEEA-AEEA-γGlu-Lauroyl])N[3Pal][NMeK]([AEEA-AEEA-γGlu-Lauroyl])-NH2; disulfide 1-6), the EPSA in data set [1] came to 179 A^2. Besides, the IC50 in data set [2] is 220 nM.
